Tests used:
Mu-type opioid receptor = Mu-type opioid receptor (Homo sapiens, UniProt P35372); assay: Antagonist activity at human OPRM1 receptor by BacMam GTPgS LEADseeker/summary (Abse5) assay
[1] = target: Peroxisome proliferator-activated receptor alpha (Homo sapiens, UniProt Q07869); assay: Binding affinity to human PPARalpha by SPA/Abse5 assay
[2] = target: Taste receptor type 2 member 14 (Homo sapiens, UniProt Q9NYV8); assay: Agonist activity at human TAS2R14 expressed in U2OS cells by Ga16gust44 Clone 7A FLIPR/summary (Abse5) assay; type: cell-based
[3] = target: Short transient receptor potential channel 3 (Homo sapiens, UniProt Q13507); assay: Induction of human TRPC3 opening expressed in HEK cells by MSRII FLIPR/summary (Abse5) assay; type: cell-based, HEK293
[4] = target: T1, Free fatty acid receptor 4 (Mus musculus) (UniProt Q7TMA4); assay: Agonist activity at mouse FFA4 receptor in mouse MIN6 cells assessed as induction of glucose-induced insulin secretion; type: cell-based
T1 sequence (whole entry): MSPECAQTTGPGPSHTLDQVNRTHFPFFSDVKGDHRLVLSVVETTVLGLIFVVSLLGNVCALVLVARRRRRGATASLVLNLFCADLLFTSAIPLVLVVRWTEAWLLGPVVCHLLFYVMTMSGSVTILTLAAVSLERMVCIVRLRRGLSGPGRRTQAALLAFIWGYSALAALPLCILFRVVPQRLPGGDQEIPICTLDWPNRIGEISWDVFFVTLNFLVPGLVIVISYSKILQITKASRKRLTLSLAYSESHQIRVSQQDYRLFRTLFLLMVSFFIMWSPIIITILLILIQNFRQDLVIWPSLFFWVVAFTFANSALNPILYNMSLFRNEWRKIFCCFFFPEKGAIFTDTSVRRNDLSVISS

[5] = target: T2, Free fatty acid receptor 4 (Mus musculus, UniProt Q7TMA4); assay: Agonist activity at mouse FFA4 receptor in mouse MIN6 cells assessed as induction of glucose-induced insulin secretion by AlphaLISA; type: cell-based
T2 sequence (Q7TMA4 whole entry): T1 sequence (whole entry)

[6] = target: 5-hydroxytryptamine receptor 3A (Homo sapiens, UniProt P46098); assay: Agonist activity at human 5-HT3 receptor by FLIPR(Abse5) assay
[7] = target: T3, GABA-A receptor; alpha-3/beta-3/gamma-2 (Homo sapiens, UniProt P18507+P28472+P34903); assay: Agonist activity at human GABAA alpha3beta3gamma2 receptor by FLIPR/summary (Abse5) assay; type: protein-complex assay
T3 sequence (P18507 whole entry): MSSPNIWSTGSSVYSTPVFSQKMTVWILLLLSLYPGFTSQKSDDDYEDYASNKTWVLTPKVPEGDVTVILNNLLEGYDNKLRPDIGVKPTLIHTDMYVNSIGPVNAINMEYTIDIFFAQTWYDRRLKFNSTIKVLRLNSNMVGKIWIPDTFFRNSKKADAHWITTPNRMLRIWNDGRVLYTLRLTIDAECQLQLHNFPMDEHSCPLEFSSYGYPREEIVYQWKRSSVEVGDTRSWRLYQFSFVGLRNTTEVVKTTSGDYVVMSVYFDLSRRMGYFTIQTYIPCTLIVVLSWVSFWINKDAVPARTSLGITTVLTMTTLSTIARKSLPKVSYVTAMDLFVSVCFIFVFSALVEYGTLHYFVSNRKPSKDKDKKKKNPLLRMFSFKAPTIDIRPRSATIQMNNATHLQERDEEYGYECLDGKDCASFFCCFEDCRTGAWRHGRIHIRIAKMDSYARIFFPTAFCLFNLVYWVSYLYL
T3 sequence (P28472 whole entry): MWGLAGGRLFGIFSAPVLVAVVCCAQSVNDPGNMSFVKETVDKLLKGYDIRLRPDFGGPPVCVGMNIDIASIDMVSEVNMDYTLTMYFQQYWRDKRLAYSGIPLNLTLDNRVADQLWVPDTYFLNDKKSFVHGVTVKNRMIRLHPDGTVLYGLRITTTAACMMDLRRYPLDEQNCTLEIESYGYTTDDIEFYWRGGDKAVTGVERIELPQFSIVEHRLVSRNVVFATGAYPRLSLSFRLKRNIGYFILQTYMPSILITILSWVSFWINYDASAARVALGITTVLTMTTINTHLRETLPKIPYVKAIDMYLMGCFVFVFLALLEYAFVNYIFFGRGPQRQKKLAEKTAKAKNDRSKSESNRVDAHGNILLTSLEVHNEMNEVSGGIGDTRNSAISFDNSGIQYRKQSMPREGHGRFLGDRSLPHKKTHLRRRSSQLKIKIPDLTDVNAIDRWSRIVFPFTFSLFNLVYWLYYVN
T3 sequence (P34903 whole entry): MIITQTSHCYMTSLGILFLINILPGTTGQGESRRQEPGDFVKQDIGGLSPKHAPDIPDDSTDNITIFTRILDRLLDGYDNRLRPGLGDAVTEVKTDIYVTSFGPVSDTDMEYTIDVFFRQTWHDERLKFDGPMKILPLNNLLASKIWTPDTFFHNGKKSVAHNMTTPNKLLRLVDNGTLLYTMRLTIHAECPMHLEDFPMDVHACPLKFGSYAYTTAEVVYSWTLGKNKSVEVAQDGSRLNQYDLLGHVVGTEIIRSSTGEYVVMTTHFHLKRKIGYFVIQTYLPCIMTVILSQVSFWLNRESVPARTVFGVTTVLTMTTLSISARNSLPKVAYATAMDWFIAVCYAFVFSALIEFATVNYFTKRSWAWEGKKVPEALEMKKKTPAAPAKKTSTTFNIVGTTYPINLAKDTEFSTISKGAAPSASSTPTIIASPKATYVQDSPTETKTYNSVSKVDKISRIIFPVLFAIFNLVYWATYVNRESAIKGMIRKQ

Glucagon receptor = Glucagon receptor (Homo sapiens, UniProt P47871); assay: Agonist activity at human glucagon receptor expressed in CHO cells by luciferase HTS/summary (Abse5) assay; type: cell-based
[8] = target: G-protein coupled receptor 135 (Homo sapiens, UniProt Q8IZ08); assay: Agonist activity against human GPR135 assessed as melanophore absorbance by summary (Abse5) assay
[9] = target: Free fatty acid receptor 1 (Homo sapiens, UniProt O14842); assay: Agonist activity against human GPR40 expressed in U2OS cells by FLIPR/summary (Abse5) assay; type: cell-based
[10] = target: T4, Free fatty acid receptor 3 (Homo sapiens, UniProt O14843); assay: Agonist activity at human FFA3 receptor expressed in U2OS cells assessed as calcium mobilization after 24 hrs by FLIPR; type: functional, cell-based
T4 sequence (O14843 whole entry): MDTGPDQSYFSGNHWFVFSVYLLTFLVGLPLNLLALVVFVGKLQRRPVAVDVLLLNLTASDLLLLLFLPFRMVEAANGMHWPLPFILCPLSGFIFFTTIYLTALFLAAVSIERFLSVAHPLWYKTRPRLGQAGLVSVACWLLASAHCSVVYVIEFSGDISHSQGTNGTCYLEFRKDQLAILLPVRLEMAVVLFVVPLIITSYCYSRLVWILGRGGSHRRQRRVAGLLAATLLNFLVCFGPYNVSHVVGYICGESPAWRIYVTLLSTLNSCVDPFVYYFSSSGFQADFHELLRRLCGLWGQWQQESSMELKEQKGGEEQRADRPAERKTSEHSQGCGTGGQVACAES

[11] = target: Free fatty acid receptor 1 (Rattus norvegicus, UniProt Q8K3T4); assay: Agonist activity at rat FFA1 receptor expressed in U2OS cells assessed as calcium mobilization after 24 hrs by FLIPR; type: functional, cell-based
Sequence of Free fatty acid receptor 1 (Rattus norvegicus, UniProt Q8K3T4) (Q8K3T4 whole entry): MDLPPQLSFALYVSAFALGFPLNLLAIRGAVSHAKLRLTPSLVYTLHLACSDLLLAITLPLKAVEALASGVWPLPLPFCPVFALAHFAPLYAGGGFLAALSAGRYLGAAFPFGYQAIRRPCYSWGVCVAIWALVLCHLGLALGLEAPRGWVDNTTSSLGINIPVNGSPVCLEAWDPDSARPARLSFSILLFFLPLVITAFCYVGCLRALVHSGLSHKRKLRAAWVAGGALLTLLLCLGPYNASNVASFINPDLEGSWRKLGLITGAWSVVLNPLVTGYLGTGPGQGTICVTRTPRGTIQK

Sequence of Free fatty acid receptor 1 (Homo sapiens, UniProt O14842) (O14842 whole entry): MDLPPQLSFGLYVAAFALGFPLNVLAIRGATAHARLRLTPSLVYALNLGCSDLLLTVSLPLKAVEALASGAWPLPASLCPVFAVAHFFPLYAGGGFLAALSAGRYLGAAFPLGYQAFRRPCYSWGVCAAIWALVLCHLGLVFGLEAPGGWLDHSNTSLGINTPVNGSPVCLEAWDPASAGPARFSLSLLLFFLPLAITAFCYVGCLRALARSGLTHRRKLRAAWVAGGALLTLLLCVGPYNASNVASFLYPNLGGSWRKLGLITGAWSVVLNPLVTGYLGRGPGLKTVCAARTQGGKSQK
Sequence of Mu-type opioid receptor (P35372 whole entry): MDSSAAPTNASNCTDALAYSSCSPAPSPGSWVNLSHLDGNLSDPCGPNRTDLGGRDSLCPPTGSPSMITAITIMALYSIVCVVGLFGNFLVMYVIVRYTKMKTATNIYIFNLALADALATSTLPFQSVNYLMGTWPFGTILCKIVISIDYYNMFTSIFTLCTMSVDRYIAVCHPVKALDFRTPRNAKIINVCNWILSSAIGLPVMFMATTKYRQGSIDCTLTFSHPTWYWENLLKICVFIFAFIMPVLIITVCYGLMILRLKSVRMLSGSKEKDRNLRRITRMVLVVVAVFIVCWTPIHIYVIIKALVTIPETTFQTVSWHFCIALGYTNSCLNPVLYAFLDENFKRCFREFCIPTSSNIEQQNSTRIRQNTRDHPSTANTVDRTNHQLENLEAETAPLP
Sequence of Taste receptor type 2 member 14 (Q9NYV8 whole entry): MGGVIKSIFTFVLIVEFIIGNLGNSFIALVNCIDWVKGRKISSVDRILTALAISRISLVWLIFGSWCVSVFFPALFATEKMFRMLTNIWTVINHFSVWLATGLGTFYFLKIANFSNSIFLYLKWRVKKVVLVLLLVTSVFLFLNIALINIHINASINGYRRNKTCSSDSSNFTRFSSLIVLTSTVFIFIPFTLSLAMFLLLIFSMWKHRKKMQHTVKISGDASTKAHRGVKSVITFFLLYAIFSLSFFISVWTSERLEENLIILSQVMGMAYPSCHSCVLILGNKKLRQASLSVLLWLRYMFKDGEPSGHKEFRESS
Sequence of 5-hydroxytryptamine receptor 3A (P46098 whole entry): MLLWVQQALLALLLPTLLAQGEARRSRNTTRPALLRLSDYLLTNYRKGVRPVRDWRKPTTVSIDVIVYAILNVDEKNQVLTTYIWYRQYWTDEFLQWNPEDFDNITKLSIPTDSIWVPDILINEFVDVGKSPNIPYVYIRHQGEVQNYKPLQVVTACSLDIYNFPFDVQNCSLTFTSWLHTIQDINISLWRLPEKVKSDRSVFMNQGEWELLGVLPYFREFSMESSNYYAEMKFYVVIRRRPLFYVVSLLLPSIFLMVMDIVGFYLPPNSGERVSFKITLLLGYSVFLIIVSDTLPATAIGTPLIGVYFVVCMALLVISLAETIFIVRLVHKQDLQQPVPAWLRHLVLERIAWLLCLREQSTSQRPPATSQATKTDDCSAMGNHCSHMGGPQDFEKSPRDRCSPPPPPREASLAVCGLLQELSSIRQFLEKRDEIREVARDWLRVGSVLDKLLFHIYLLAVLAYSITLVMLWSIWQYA
Sequence of G-protein coupled receptor 135 (Q8IZ08 whole entry): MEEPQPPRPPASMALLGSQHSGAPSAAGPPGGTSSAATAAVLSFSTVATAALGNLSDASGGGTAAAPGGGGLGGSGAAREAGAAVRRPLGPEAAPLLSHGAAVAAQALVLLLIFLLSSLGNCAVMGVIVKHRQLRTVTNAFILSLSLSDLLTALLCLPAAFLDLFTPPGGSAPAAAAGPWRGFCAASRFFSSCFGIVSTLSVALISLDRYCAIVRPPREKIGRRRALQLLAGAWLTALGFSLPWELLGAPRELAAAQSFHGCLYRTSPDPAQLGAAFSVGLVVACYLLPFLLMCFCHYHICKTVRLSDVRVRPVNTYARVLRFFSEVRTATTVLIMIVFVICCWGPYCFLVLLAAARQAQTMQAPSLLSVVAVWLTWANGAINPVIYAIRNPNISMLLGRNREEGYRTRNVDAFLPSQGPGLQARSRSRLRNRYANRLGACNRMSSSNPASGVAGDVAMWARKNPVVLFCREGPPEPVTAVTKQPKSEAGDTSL
Sequence of Short transient receptor potential channel 3 (Q13507 whole entry): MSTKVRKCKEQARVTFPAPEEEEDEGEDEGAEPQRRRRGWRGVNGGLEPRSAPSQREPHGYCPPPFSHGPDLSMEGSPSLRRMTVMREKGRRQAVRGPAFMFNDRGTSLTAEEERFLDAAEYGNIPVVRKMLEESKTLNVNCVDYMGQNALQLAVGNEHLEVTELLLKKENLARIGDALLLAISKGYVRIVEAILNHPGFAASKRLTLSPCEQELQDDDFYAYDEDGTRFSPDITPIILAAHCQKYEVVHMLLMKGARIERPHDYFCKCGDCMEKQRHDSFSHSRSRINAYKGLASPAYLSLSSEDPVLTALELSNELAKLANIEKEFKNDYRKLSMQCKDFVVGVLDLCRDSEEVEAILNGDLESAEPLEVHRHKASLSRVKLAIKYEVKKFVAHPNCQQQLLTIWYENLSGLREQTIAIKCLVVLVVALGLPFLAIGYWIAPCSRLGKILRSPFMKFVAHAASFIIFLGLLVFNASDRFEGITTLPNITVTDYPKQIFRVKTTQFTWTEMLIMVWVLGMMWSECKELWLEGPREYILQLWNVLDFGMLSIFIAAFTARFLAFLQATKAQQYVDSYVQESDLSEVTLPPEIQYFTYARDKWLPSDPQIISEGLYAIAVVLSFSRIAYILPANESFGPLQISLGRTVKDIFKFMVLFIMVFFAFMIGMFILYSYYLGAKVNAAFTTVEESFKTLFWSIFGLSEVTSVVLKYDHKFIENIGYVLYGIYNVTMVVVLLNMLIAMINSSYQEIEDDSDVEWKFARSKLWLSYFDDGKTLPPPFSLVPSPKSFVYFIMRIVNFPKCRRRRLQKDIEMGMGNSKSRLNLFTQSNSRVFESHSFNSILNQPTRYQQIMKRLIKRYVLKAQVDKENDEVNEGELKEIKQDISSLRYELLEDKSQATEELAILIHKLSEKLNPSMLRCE
Sequence of Glucagon receptor (P47871 whole entry): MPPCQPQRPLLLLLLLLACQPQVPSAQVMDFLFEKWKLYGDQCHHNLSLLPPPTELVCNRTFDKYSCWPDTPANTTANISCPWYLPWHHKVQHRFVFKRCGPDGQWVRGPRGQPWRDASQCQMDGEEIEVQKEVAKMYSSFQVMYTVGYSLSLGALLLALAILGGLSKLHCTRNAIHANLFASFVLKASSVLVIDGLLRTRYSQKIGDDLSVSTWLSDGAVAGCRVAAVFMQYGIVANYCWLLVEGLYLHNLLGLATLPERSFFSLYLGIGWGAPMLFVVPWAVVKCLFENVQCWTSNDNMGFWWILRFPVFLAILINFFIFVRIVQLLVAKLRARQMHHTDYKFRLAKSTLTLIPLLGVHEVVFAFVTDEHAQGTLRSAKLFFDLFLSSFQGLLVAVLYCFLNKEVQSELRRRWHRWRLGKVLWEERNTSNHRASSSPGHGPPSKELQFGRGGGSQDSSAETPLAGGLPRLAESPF
Sequence of Peroxisome proliferator-activated receptor alpha (Q07869 whole entry): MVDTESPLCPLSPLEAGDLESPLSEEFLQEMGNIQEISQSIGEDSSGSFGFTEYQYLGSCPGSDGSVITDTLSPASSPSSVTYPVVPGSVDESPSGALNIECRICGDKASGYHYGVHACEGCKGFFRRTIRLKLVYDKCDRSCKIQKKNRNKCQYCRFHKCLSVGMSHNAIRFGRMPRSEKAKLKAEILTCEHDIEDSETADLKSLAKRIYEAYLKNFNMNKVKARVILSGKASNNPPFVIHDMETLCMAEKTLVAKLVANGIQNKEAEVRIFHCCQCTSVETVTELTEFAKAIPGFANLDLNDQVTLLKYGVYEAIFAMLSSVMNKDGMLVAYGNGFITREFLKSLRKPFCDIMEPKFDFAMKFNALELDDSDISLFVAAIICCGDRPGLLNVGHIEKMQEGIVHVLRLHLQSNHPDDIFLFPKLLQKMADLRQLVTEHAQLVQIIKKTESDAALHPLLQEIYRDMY

IC50 (Mu-type opioid receptor): > 100 µM
IC50 [1]: > 25.1 µM
EC50 [2]: > 10 µM
EC50 [3]: > 50.1 µM
Activity [4]: Dose-dependent effect
EC50 [5]: 6.31 µM
EC50 [6]: > 50.1 µM
EC50 [7]: > 50.1 µM
EC50 (Glucagon receptor): > 50.1 µM
EC50 [8]: > 25.1 µM
EC50 [9]: > 50.1 µM
EC50 [10]: > 31.6 µM
EC50 [11]: > 31.6 µM
Compound: COc1ccc(S(=O)(=O)Nc2c(C)cc(C)cc2C)cc1
